Source: US9260481B2, “Peptide derivatives as antibiotics” (priority 2011, dated 2016)
Converted amounts (≈) assume the structure as drawn. Read-outs that look alike come from different tables or passages of the source. Marks after values point to notes of the source that are not given here.

Key:
S. aureus ATCC 25923 = assay type: cell-based, Staphylococcus aureus; conditions: for MIC antibiotic alone: S. aureus ATCC 25923, checkerboard, ~10^4 CFU/mL
Text: (§1) Vancomycin, rifampicin, kanamycin, gentamicin, ampicillin, ciprofloxacin and tetracycline (Sigma-Aldrich) were provided as standard powders by the manufacturers.

P. aeruginosa = experiment: Resistance profile of multiresistant clinical isolates; assay type: cell-based, Pseudomonas aeruginosa; parameters: key: R: resistant; S: sensitive; I: intermediate
S. aureus = experiment: as above; assay type: cell-based, Staphylococcus aureus; parameters: key: R: resistant; S: sensitive; I: intermediate
K. pneumoniae ATCC 43816 = assay type: cell-based, Klebsiella pneumoniae; conditions: for MIC antibiotic alone: K. pneumoniae ATCC 43816, checkerboard, ~10^4 CFU/mL; for Combinations Odilomycin/antibiotic: Odilomycin concentration: Odilomycin A part of the inhibitory combination with the labelled antibiotic
Text: as §1

[1] = test system: S. aureus Smith ATCC 13709; experiment: Acute lethal infection in mice; assay type: in vivo, ICR mice
Description: Female ICR mice ordered from Harlan Laboratories (Indianapolis, Ind.) weighing 19-21 g were used in experiments of acute lethal infection. Mice were fully immunocompetent. Infection was induced by inoculating intraperitoneally in mice a bacterial suspension of S. aureus Smith ATCC 13709. The bacterial challenges (ca 5 log10 CFU/mouse) were given suspended in 0.5 mL of 20% hog mucin. […] Mortality was tracked out to 5 days post challenge. Animals that remained surviving at the end of the study were humanely euthanized.

P. aeruginosa ATCC 27853 = experiment: Acute lethal infection in mice; assay type: in vivo, BALB/c mice; conditions: P. aeruginosa infection; Tobramycin […] IP
Description: Female BALB/c mice ordered from Harlan Laboratories (Indianapolis, Ind.) weighing 19-21 g were used in experiments of acute lethal infection. Mice were fully immunocompetent. Infection was induced by inoculating intraperitoneally in mice a bacterial suspension of P. aeruginosa ATCC 27853. The bacterial challenges (8.6 log10 CFU/mouse) were given suspended in 0.1 mL sterile saline. Treatments were administered once 1 hour after challenge via IV injection (Tobramycin was administered via IP injection immediately after challenge) (Table 13). Mortality was tracked out to 2 days post challenge. Animals that remained surviving at the end of the study were humanely euthanized.

Staphylococcus aureus = experiment: microbe, parasite or virus in culture; conditions: Staphylococcus aureus
Description: (§2) The minimal inhibitory concentrations (MIC) were determined according to the Clinical and Laboratory Standards Institute (CLSI) conditions guidelines detailed in Table 7. Assays were performed in triplicate.
(§3) Preparation of Inocula. Five to 10 well-isolated colonies were picked and resuspended in 3 ml sterile saline. The inoculum was re-suspended by vigorous shaking on a vortex mixer for 15 s. Turbidity was adjusted to McFarland standard 0.5 ([…]). The inoculum was further diluted in the appropriate media (Table 7) to give a final inoculum in each well of ˜2-8×10^5 CFU/ml.
(§4) Addition of Test Article. Stock solutions of Odilomycin A or comparator were diluted in the appropriate media to give a maximum starting concentration of 50 μg/mL in the assay. 50 μL of medium was dispensed into each well in columns two to 12 of a 96 well plate. 100 μL of the appropriate test compound solution (100 μg/mL) was dispensed into each well in column one. In the case of M. catarrhalis, M. haemolytica and P. multocida these values were doubled (a final assay volume of 200 μL was used). […] Columns 11 and 12 served as positive (no drug or test article, inoculum added), and negative (no drug, test article, or inoculum added) growth controls respectively.
(§5) Addition of Bacterial Strains. 50 μL of each inoculum suspension was added to the appropriate wells, resulting in a final volume of 100 μL consisting of 50 μL diluted compound or diluents, and 50 μL of inoculum or broth alone.

Escherichia coli = test system: Escherichia coli
Description: as §2, §3, §4, §5

Pseudomonas aeruginosa = conditions: P. aeruginosa ATCC 27853
Description: as §2, §3, §4, §5

Enterobacter cloacae = conditions: E. cloacae clinical isolate 11370
Description: as §2, §3, §4, §5

Klebsiella oxytoca = conditions: K. oxytoca clinical isolate NEB9
Description: as §2, §3, §4, §5

Klebsiella pneumoniae = test system: Klebsiella pneumoniae
Description: as §2, §3, §4, §5

[2] = P. aeruginosa multiresistant clinical isolate 5618
[3] = P. aeruginosa multiresistant clinical isolate 35170
[4] = P. aeruginosa multiresistant clinical isolate 42162
[5] = P. aeruginosa multiresistant clinical isolate 401681
[6] = P. aeruginosa multiresistant clinical isolate 512232
[7] = S. aureus multiresistant clinical isolate 16666
[8] = S. aureus multiresistant clinical isolate 20364
[9] = S. aureus multiresistant clinical isolate 20681
[10] = S. aureus multiresistant clinical isolate 21840
[11] = S. aureus multiresistant clinical isolate 23305
[12] = mice, S. aureus 5 log10 CFU/mouse IP, Linezolid 12.5 mg/kg PO at 0 hr, n=6

Compound	MIC antibiotic alone (S. aureus ATCC 25923) [mg/L]	Susceptibility of isolate to antibacterial (R/S/I) (P. aeruginosa; [2])	Susceptibility of isolate to antibacterial (R/S/I) (P. aeruginosa; [3])	Susceptibility of isolate to antibacterial (R/S/I) (P. aeruginosa; [4])	Susceptibility of isolate to antibacterial (R/S/I) (P. aeruginosa; [5])	Susceptibility of isolate to antibacterial (R/S/I) (P. aeruginosa; [6])	Susceptibility of isolate to antibacterial (R/S/I) (S. aureus; [7])	Susceptibility of isolate to antibacterial (R/S/I) (S. aureus; [8])	Susceptibility of isolate to antibacterial (R/S/I) (S. aureus; [9])	Susceptibility of isolate to antibacterial (R/S/I) (S. aureus; [10])	Susceptibility of isolate to antibacterial (R/S/I) (S. aureus; [11])	other results
CC1(C)S[C@@H]2[C@H](NC(=O)[C@H](N)c3ccccc3)C(=O)N2[C@H]1C(=O)O [Ampicillin]	0.15											
C[C@H]1[C@H](NC(=O)/C(=N\OC(C)(C)C(=O)O)c2csc(N)n2)C(=O)N1S(=O)(=O)O [Aztreonam]		S	R	I	I	R						
CO[C@@]1(NC(=O)Cc2cccs2)C(=O)N2C(C(=O)O)=C(COC(N)=O)CS[C@@H]21 [Cefoxitin]							R	R	R	S	I	
O=C(O)c1cn(C2CC2)c2cc(N3CCNCC3)c(F)cc2c1=O [Ciprofloxacin, ciprofloxacin]	0.31											
CCC[C@@H]1C[C@@H](C(=O)N[C@@H]([C@H]2O[C@H](SC)[C@H](O)[C@@H](O)[C@H]2O)[C@H](C)Cl)N(C)C1 [Clindamycin]		R	R	R	R	R	R	R	S	S	R	
CC[C@H]1OC(=O)[C@H](C)[C@@H](O[C@H]2C[C@@](C)(OC)[C@@H](O)[C@H](C)O2)[C@H](C)[C@@H](O[C@@H]2O[C@H](C)C[C@H](N(C)C)[C@H]2O)[C@](C)(O)C[C@@H](C)C(=O)[C@H](C)[C@@H](O)[C@]1(C)O [Erythromycin]		R	R	R	R	R	R	R	S	S	R	
C[C@@H](O)[C@H]1C(=O)N2C(C(=O)O)=C(SCCN=CN)C[C@H]12 [Imipenem]		R	R	R	S	R						
NC[C@H]1O[C@H](O[C@H]2[C@H](O)[C@@H](O[C@H]3O[C@H](CO)[C@@H](O)[C@H](N)[C@H]3O)[C@H](N)C[C@@H]2N)[C@H](O)[C@@H](O)[C@@H]1O [Kanamycin]	0.62											MIC antibiotic alone (K. pneumoniae ATCC 43816): 1.56 mg/L; Combinations Odilomycin/antibiotic: Odilomycin concentration (K. pneumoniae ATCC 43816; K. pneumoniae ATCC 43816): 6.25 µg/mL; Combinations Odilomycin/antibiotic: antibiotic concentration (K. pneumoniae ATCC 43816; K. pneumoniae ATCC 43816, antibiotic part of the inhibitory combination with Odilomycin A): 0.39 µg/mL
CC(=O)NC[C@H]1CN(c2ccc(N3CCOCC3)c(F)c2)C(=O)O1 [Linezolid, reference compound]							S	S	S	S	S	Survival of all treated mice ([1]; S. aureus infection, linezolid 12.5 mg/kg PO): survived up to 5 days after infection; Animal deaths Day 0 [1, 12]: 0; Animal deaths Day 1 [1, 12]: 0; Animal deaths Day 2 [1, 12]: 0; Animal deaths Day 3 [1, 12]: 0; Animal deaths Day 4 [1, 12]: 0; Animal deaths Day 5 [1, 12]: 0
CO[C@H]1/C=C/O[C@@]2(C)Oc3c(C)c(O)c4c(O)c(c(/C=N/N5CCN(C)CC5)c(O)c4c3C2=O)NC(=O)/C(C)=C\C=C\[C@H](C)[C@H](O)[C@@H](C)[C@@H](O)[C@@H](C)[C@H](OC(C)=O)[C@@H]1C [Rifampicin]	0.012											
CN(C)[C@@H]1C(O)=C(C(N)=O)C(=O)[C@@]2(O)C(O)=C3C(=O)c4c(O)cccc4[C@@](C)(O)[C@H]3C[C@@H]12 [Tetracycline]	0.78											
NC[C@H]1O[C@H](O[C@H]2[C@H](O)[C@@H](O[C@H]3O[C@H](CO)[C@@H](O)[C@H](N)[C@H]3O)[C@H](N)C[C@@H]2N)[C@H](N)C[C@@H]1O [Tobramycin, reference compound]												Survival of all treated mice (P. aeruginosa ATCC 27853): survived up to 5 days after infection
CN[C@H](CC(C)C)C(=O)N[C@H]1C(=O)N[C@@H](CC(N)=O)C(=O)N[C@H]2C(=O)N[C@H]3C(=O)N[C@H](C(=O)N[C@H](C(=O)O)c4cc(O)cc(O)c4-c4cc3ccc4O)[C@H](O)c3ccc(c(Cl)c3)Oc3cc2cc(c3O[C@@H]2O[C@H](CO)[C@@H](O)[C@H](O)[C@H]2O[C@H]2C[C@](C)(N)[C@H](O)[C@H](C)O2)Oc2ccc(cc2Cl)[C@H]1O [Vancomycin, vancomycin]	0.78						S	S	S	S	S	MIC (Staphylococcus aureus; ATCC13709): 0.78 mg/L (≈ 0.538 µM); MIC (Staphylococcus aureus; ATCC25923): 0.78 mg/L (≈ 0.538 µM); MIC (Staphylococcus aureus; ATCCBAA1556 / USA300): 0.78 mg/L (≈ 0.538 µM)
Gentamicin	0.078	R	R	R	R	R	R	S	S	S	R	MIC antibiotic alone (K. pneumoniae ATCC 43816): 0.39 mg/L; Combinations Odilomycin/antibiotic: Odilomycin concentration (K. pneumoniae ATCC 43816; K. pneumoniae ATCC 43816): 3.12 µg/mL; Synergy with Odilomycin A (K. pneumoniae ATCC 43816; K. pneumoniae ATCC 43816, labelled antibiotic combined with Odilomycin A): synergistic interaction; Combinations Odilomycin/antibiotic: Odilomycin concentration (S. aureus ATCC 25923; S. aureus ATCC 25923, Odilomycin A part of the inhibitory combination with the labelled antibiotic): 0.19 µg/mL; Combinations Odilomycin/antibiotic: antibiotic concentration (S. aureus ATCC 25923; S. aureus ATCC 25923, antibiotic part of the inhibitory combination with Odilomycin A): 0.039 µg/mL; Synergy with Odilomycin A (S. aureus ATCC 25923; S. aureus ATCC 25923, labelled antibiotic combined with Odilomycin A): synergistic interaction
polymyxin [reference compound]												MIC (Escherichia coli; E. coli ATCC 25922): 0.39^c μg/mL; MIC (Escherichia coli; E. coli CTX-M14 clinical isolate AEC7): 0.39^c μg/mL; MIC (Escherichia coli; E. coli CTX-M15 clinical isolate MEC23): 0.39^c μg/mL; MIC (Escherichia coli; E. coli TEM clinical isolate MEC12): 0.39^c μg/mL; MIC (Pseudomonas aeruginosa): 0.39^c μg/mL; MIC (Enterobacter cloacae): 0.78^c μg/mL; MIC (Klebsiella oxytoca): 0.39^c μg/mL; MIC (Klebsiella pneumoniae; K. pneumoniae ATCC 43816): 0.39^c μg/mL; MIC (Klebsiella pneumoniae; K. pneumoniae KPC clinical isolate 2475): 0.78^c μg/mL
